“And” between values parts separate entries of the source, which are not always exact repeats. Identical values can stand only once.
Key:
[1] = Rat mass balance recovery (urine, feces, cage rinses and wipes, carcasses, expired air), Groups 2 and 3; format: in vivo; set-up: Mass Balance Recovery, Feces Subtotal / Mass Balance Recovery, Expired Air, Trap 1 / Mass Balance Recovery, Expired Air, Trap 1 Subtotal: unit not given here; conditions: for Mass Balance Recovery, Feces / Mass Balance Recovery, Cage Rinse / Mass Balance Recovery, Dose Site Wipe / Mass Balance Recovery, Urine / Mass Balance Recovery, Cage Wipe / Mass Balance Recovery, Carcass / Mass Balance Recovery, Feces Subtotal / Mass Balance Recovery, Cage Rinse Subtotal / Mass Balance Recovery, Urine Subtotal: rat Group 2, IV dose; for Mass Balance Recovery, Dose Site Wipe: 0 hrs; for Mass Balance Recovery, Cage Wipe / Mass Balance Recovery, Carcass: 96 hrs; for Mass Balance Recovery, Expired Air, Trap 1 / Mass Balance Recovery, Expired Air, Trap 1 Subtotal: rat Group 3, IV dose; for Mass Balance Recovery, TOTAL: rat Groups 2 and 3, IV dose
Description: (§1) A study was conducted to determine the pharmacokinetics, rates and routes of excretion with mass baseline and tissue distribution of radioactivity, after a single intravenous dose administration of formula XIII (also referred to as [^14C]DAP) was administered to the rats by tail vein intravenous injection at a
(§2) The study was conducted on 19 male rats divided into 4 groups. The first group of 6 rats was used for blood collection (Group 1); the second group of 4 rats was used for urine, feces, cage rinses and wipes and carcasses collection (Group 2); the third group of 4 rats was used for expired air collection (Group 3); the fourth group of 5 rats was used for terminal blood/serum and tissue distribution by Quantitative Whole-Body Autoradiography (QWBA) (Group 4).

[2] = Rat blood PK and blood to serum ratio, Group 4; format: in vivo
Description: as §1, §2
For Group 4, formula XIII (QWBA was run at 1, 8, 12, 24 and 72 hours post dose. After terminal blood collection, each euthanized animal was frozen in a hexane/dry ice bath and embedded in a 2% carboxymethylcellulose matrix according to MPI Research SOP ADME-112. The embedded carcasses were sectioned according to MPI Research SOP ADME-113 on a Leica CM3600 Cyromacrotome set to maintain −10 to −30° C. At least four fortified quality control standards of known radioactive concentration were placed into the frozen block prior to sectioning and used for section thickness quality control. The quality control standards were sectioned under the same conditions as the specimen. The intrasection and intersection variation of collected sections were determined by analyzing the quality control standards. Section variation must be less than 20% for quantitative analysis. Sections that were approximately 40μm thick were taken in the sagittal plane. Appropriate sections selected at various levels of interest in the block were collected to encompass the following tissues, organs, and biological fluids, where possible: adrenal gland, bladder (urinary) and contents (urine), blood (cardiac), bone, bone marrow, brain, eye, fat (brown), fat (white), heart, kidney, large intestine/cecum and contents, liver, lung, muscle, pancreas, prostate, salivary glands, skin, small intestine and contents, spleen, stomach and contents, testes, thymus, thyroid, mesenteric lymph nodes, and epididymis. A set of sections were mounted, exposed to phosphor imaging screens and scanned using the Storm 860 image acquisition system according to MPI Research SOP ADME-112. Quantification, relative to the calibration standards, were performed by image densitometry using MCID™ image analysis software according to MPI Research SOP ADME-114. A standard curve was constructed from the integrated response (MDC/mm2) and the nominal concentrations of the [^14C]Glucose calibration standards. Relative error should be less than 0.5 for each point on the curve. The concentrations of radioactivity were expressed as μCi/g and were converted to μg or ng-equivalents of DAP per gram of sample (μg- or ng-eq/g) using the specific activity of administered [^14C]DAP dose formulation. A lower limit of quantification (LLOQ) was applied to the data. The LLOQ was determined using the radioactive concentration of the lowest calibration standard used to generate a calibration curve divided by the specific activity of the dose formulation (μCi/ug). Artifacts, such as those produced by dislodged contents of the alimentary canal, were excluded from analysis during image analysis.

[3] = 24-48 hrs, Mean, in % (unit assumed)
[4] = 24-48 hrs, individual rats 201M-204M, in % (unit assumed)
[5] = 48-72 hrs, Mean, in % (unit assumed)
[6] = 48-72 hrs, individual rats 201M-204M, in % (unit assumed)
[7] = 72-96 hrs, Mean, in % (unit assumed)
[8] = 72-96 hrs, individual rats 201M-204M, in % (unit assumed)
[9] = individual rats 201M-204M, in % (unit assumed)

[2H]C1([2H])N(CCCNC(=O)[C@@H](N)CCCNC(=N)N)C([2H])([2H])C([2H])([2H])N(CCCNC(=O)[C@@H](N)CCCNC(=N)N)C1([2H])[2H] [formula XIII]
Mass Balance Recovery, Feces ([1]; 0-8 hrs, Mean, in % (unit assumed)): 0.02
Mass Balance Recovery, Feces ([1]; 0-8 hrs, individual rats 201M-204M): 0.00 and 0.04 (2×) and 0.01
Mass Balance Recovery, Cage Rinse ([1]; 0-24 hrs, Mean, in % (unit assumed)): 1.74
Mass Balance Recovery, Cage Rinse ([1]; 0-24 hrs, individual rats 201M-204M, in % (unit assumed)): 2.48 and 0.91 and 1.94 and 1.63
Mass Balance Recovery, Dose Site Wipe ([1]; Mean): 0.01%
Mass Balance Recovery, Dose Site Wipe ([1]; individual rats 201M-204M): 0.01% (3×) and 0%
Mass Balance Recovery, Feces ([1]; 8-24 hrs, Mean, in % (unit assumed)): 1.82
Mass Balance Recovery, Feces ([1]; 8-24 hrs, individual rats 201M-204M, in % (unit assumed)): 1.34 and 2.04 and 2.40 and 1.49
Mass Balance Recovery, Cage Rinse [1, 3]: 0.32
Mass Balance Recovery, Feces [1, 3]: 0.93
Mass Balance Recovery, Urine [1, 3]: 3.71
Mass Balance Recovery, Feces ([1]; 24-48 hrs, individual rats 201M-204M): 1.18 and 0.70 (2×) and 1.15
Mass Balance Recovery, Cage Rinse [1, 4]: 0.37 and 0.21 and 0.38 and 0.30
Mass Balance Recovery, Urine [1, 4]: 3.83 and 3.59 and 4.50 and 2.92
Mass Balance Recovery, Cage Rinse [1, 5]: 0.18
Mass Balance Recovery, Feces [1, 5]: 0.42
Mass Balance Recovery, Urine [1, 5]: 1.58
Mass Balance Recovery, Urine ([1]; 48-72 hrs, individual rats 201M-204M): 1.61% (2×) and 1.73% and 1.36%
Mass Balance Recovery, Cage Rinse [1, 6]: 0.13 and 0.11 and 0.20 and 0.28
Mass Balance Recovery, Feces [1, 6]: 0.46 and 0.41 and 0.54 and 0.26
Mass Balance Recovery, Cage Rinse [1, 7]: 0.16
Mass Balance Recovery, Feces [1, 7]: 0.25
Mass Balance Recovery, Urine [1, 7]: 0.94
Mass Balance Recovery, Cage Rinse [1, 8]: 0.12 and 0.11 and 0.24 and 0.15
Mass Balance Recovery, Feces [1, 8]: 0.31 and 0.26 and 0.27 and 0.15
Mass Balance Recovery, Urine [1, 8]: 0.97 and 1.03 and 0.96 and 0.79
Mass Balance Recovery, Cage Wipe ([1]; Mean, in % (unit assumed)): 0.10
Mass Balance Recovery, Carcass ([1]; Mean, in % (unit assumed)): 2.71
Mass Balance Recovery, Cage Wipe [1, 9]: 0.08 and 0.06 and 0.20 and 0.04
Mass Balance Recovery, Carcass [1, 9]: 2.74 and 2.80 and 2.60 and 2.68
Mass Balance Recovery, Feces Subtotal ([1]; Mean): 3.44
Mass Balance Recovery, Cage Rinse Subtotal ([1]; Mean, in % (unit assumed)): 2.39
Mass Balance Recovery, Urine Subtotal ([1]; Mean, in % (unit assumed)): 89.51
Mass Balance Recovery, Feces Subtotal ([1]; individual rats 201M-204M): 3.29 and 3.45 and 4.37 and 2.64
Mass Balance Recovery, Cage Rinse Subtotal [1, 9]: 3.10 and 1.34 and 2.76 and 2.36
Mass Balance Recovery, Urine Subtotal [1, 9]: 89.44 and 90.60 and 87.85 and 90.14
Mass Balance Recovery, Expired Air, Trap 1 ([1]; 0-24 hrs, Mean): 0.03
Mass Balance Recovery, Expired Air, Trap 1 ([1]; 0-24 hrs, individual rats 301M-304M): 0.03 (3×) and 0.02
Mass Balance Recovery, Expired Air, Trap 1 ([1]; 24-48 hrs, Mean): 0.00
Mass Balance Recovery, Expired Air, Trap 1 ([1]; 24-48 hrs, individual rats 301M-304M): 0.00
Mass Balance Recovery, Expired Air, Trap 1 ([1]; 48-72 hrs, Mean): 0.01
Mass Balance Recovery, Expired Air, Trap 1 ([1]; 48-72 hrs, individual rats 301M-304M): 0.00 (3×) and 0.05
Mass Balance Recovery, Expired Air, Trap 1 Subtotal ([1]; Mean): 0.04
Mass Balance Recovery, Expired Air, Trap 1 Subtotal ([1]; individual rats 301M-304M): 0.03 (2×) and 0.02 and 0.08
Mass Balance Recovery, TOTAL ([1]; (201M/301M to 204M/304M), in % (unit assumed)): 98.72 and 98.32 and 97.83 and 97.98
Mass Balance Recovery, TOTAL ([1]; Mean, in % (unit assumed)): 98.21
time after administration by which the vast majority is excreted (urinary excretion kinetics) ([1]; rat, single IV dose, FIG. 6): < 24 h
total recovery ([1]; rat, single intravenous administration, Groups 2 and 3, FIG. 8): 98.21±0.4%
Blood:Serum Ratio ([2]; rat Group 4, 1 hrs, rat 401M): 0.44
Blood:Serum Ratio ([2]; rat Group 4, 8 hrs, rat 402M): 1.32
Blood:Serum Ratio ([2]; rat Group 4, 12 hrs, rat 403M): 1.84
Blood:Serum Ratio ([2]; rat Group 4, 24 hrs, rat 404M): 2.27
Blood:Serum Ratio ([2]; rat Group 4, 72 hrs, rat 405M): 2.53
